Where two headings read alike, the source gives them in different places.
Columns and labels:
[1] = Metabolic stability in liver microsomes; assay type: in vitro ADME, human
[2] = Pharmacokinetics IV/PO in rats; assay type: in vivo, SD rats; details: for AUC(0-t): read-out: AUC0–24h
Method: Pharmacokinetics profile of KMS88009 was obtained using ICR mice, SD rats, beagle dogs and cynomolgus monkeys. Animals were fasted overnight before KMS88009 administration. Mice were divided into 2 groups to receive KMS88009 as a single dose of 2.1 mg/kg intravenous (IV) bolus or 10 mg/kg orally (PO) by gavage. Additionally, KMS88009 was administered orally to estimate the BBB penetration in mice (10, 30 and 100 mg/kg). […] Dog received KMS88009 either as an IV bolus (1 mg/kg) via the great saphenous vein or by oral gavage (4 mg/kg). KMS88009 was administrated to monkeys as an IV bolus (1 mg/kg) via the femoral vein or by oral gavage (4 mg/kg). Vehicle for IV and PO administration was DMSO/tween-20/saline (3.3∶19.8∶[…]). […]. Brain samples were weighed and Daunce-homogenized in 10-fold volume of ice-chilled 4% bovine serum albumin (BSA) solution at room temperature. Plasma and brain homogenates were kept frozen at −70°C until analysis. The levels of KMS88009 were determined by the LC-MS/MS analysis. Pharmacokinetic parameters, time to the maximum concentration (Tmax), maximum concentration (Cmax), elimination half-life (T1/2), volume of distribution (Vd), clearance (Cl) and mean residual time (MRT), of KMS88009 were calculated based on plasma concentration-time data by a non-compartmental method using WinNonlin Version 5.2 (Pharsight, USA). Area under the curve from 0 to 24 hr (AUC0-24h) and area under the curve from 0 to infinity (AUCINF) were obtained by linear and log linear trapezoidal summations.

[3] = system: APP/PS1 TG mice; assay: Morris water maze, prophylactic trial; assay type: in vivo, mouse; details: for swimming time % within the target quadrant (probe trial): APP/PS1 TG mice, vehicle TG 23.4%, WT 44.3%; for Latency (hidden platform): TG mice
Method: Behavioral tests were performed in the following sequence: Y-maze (day 1), Morris water maze (day 4 to 12) and contextual fear conditioning (day 26 to 27). To reduce stress, contextual fear conditioning was carried out 2 weeks after the Morris water maze task. In the therapeutic trial, APP/PS1 TG mice were treated with KMS88009 (30 mg/kg/day) for 3 months from 9 to 12 months of age. Y-maze tests short-term spatial working memory. Y-maze is a 3-armed (40 L×10 W×12 H cm) horizontal maze in which the arms are symmetrically disposed at 120° angles from each other. Mice were placed at the end of one arm and allowed to move freely through the maze during a 5-min session. Arm entry was considered completed when the hind paws of the mouse were completely placed in the arm. Alternation was defined as successive entries into the 3 arms on overlapping triplet sets. The series of arm entries was recorded via video recorders. The percentage of alternation was defined according to the following equation: % alternation = [(number of alternations)/(total arm entries - 2)] ×100. Mice performing fewer than 7 alternations in 5 min were excluded from the subsequent analysis to accurately determine alternation scores. Morris water maze was used to measure spatial learning and memory. A stainless pool apparatus with a diameter of 120 cm was used. A clear escape platform (circle, 12×12 cm) was located 1.0 cm below (hidden) the water surface containing white nontoxic paint. The temperature of water was kept constant throughout the experiment (21±1°C). The visual cues, for mice to recognize the environment and direction, are placed on the walls around the pool. The training was consisted of 8 consecutive days of testing with 4 trials per day. When a mouse was located on the escape platform, it was permitted to remain on the platform for 15 sec. […] Then the subject was returned to its home cage and allowed to dry up after each trial. The platform location was kept constant and the starting position was varied. Each mouse was placed in the water with their nose pointing toward the wall at one of the starting points in a random manner. During each trial session, the time taken to find the hidden platform (latency) was recorded using a video camera-based Ethovision System (Nodulus, Nertherlands). On the 9th day, each mouse was tested on a probe trial. The platform was removed from pool and the mice were allowed to swim for 60 sec to search. Swimming time was recorded during mice were in the pool quadrant where the platform had been previously located. Mice, which float or jump from platform, were eliminated from the experiment since these responses may be incompatible with the behaviors needed to locate and learn the platform position. In addition, animals with difficulty in swimming were also excluded from this study. Fear conditioning task was measured to test the ability to learn and remember an association between an aversive experience and environmental cues. Contextual fear conditioning evaluation was performed using a fear-conditioning chamber (Courlbourn, USA) equipped with a computer-controlled fear conditioning system (FreActimetrics, USA). On the first day of training, each mouse was placed in the conditioning chamber and left to adjust for 2 min. Fear conditioning test was performed with conditional stimulus (CS) of sound (75 dB) for 20 sec followed by unconditional stimulus (US) of electric foot-shock (0.5 mA) for the last 2 sec in CS. After 1 min, the subject was returned to its home cage. After 24 hr, retention test was performed. […] Freezing response was measured without CS or US. Freezing behavior was defined as the complete absence of any movement except for respiration and heartbeat. Animals with no response to the foot-shock during training were excluded from the analysis. Data analyses including recordings of all behavioral responses were performed by keeping research colleagues blind.

[4] = system: APP/PS1 TG mice; assay: Contextual fear conditioning, therapeutic trial; assay type: in vivo, mouse; details: PO 30 mg/kg/day, 3 months, TG 20.0%
Method: Behavioral tests were performed in the following sequence: Y-maze (day 1), Morris water maze (day 4 to 12) and contextual fear conditioning (day 26 to 27). To reduce stress, contextual fear conditioning was carried out 2 weeks after the Morris water maze task. In the therapeutic trial, APP/PS1 TG mice were treated with KMS88009 (30 mg/kg/day) for 3 months from 9 to 12 months of age. Y-maze tests short-term spatial working memory. Y-maze is a 3-armed (40 L×10 W×12 H cm) horizontal maze in which the arms are symmetrically disposed at 120° angles from each other. Mice were placed at the end of one arm and allowed to move freely through the maze during a 5-min session. Arm entry was considered completed when the hind paws of the mouse were completely placed in the arm. Alternation was defined as successive entries into the 3 arms on overlapping triplet sets. The series of arm entries was recorded via video recorders. […] During each trial session, the time taken to find the hidden platform (latency) was recorded using a video camera-based Ethovision System (Nodulus, Nertherlands). […] Swimming time was recorded during mice were in the pool quadrant where the platform had been previously located. […] Fear conditioning task was measured to test the ability to learn and remember an association between an aversive experience and environmental cues. […] Freezing response was measured without CS or US. […]

[5] = system: APP/PS1 TG mice; assay: Y-maze, prophylactic trial; assay type: in vivo, mouse; details: 5 to 12 months of age

With `COc1ccc2cc(C=Cc3ccc(N(C)C)cc3)oc2c1` [KMS88009, 6-methoxy-2-(4-dimethylaminostyryl) benzofuran] the Metabolic stability ([1]; human liver microsomes 1 mg/mL, 5 µM, symbol) was “√ (Mean percent value is confirmed over 90% at 60 min.)”, the remaining at 1 h, 5 µM ([1]; human liver microsomes, read-out: Remaining % of parent molecule at 60 min.) was 92.7 ± 0.4% and the MRT last ([2]; SD, plasma, rat IV 1.25 mg/kg) was 1.8 h. The Vd ([2]; SD, plasma, rat IV 1.25 mg/kg) was 8 L/kg, the clearance ([2]; SD, plasma, rat IV 1.25 mg/kg) was 0.8 L/h/kg and the half-life ([2]; SD, plasma, rat IV 1.25 mg/kg) was 7.2 h. For the same molecule, the MRT last ([2]; SD, plasma, rat PO 2.5 mg/kg) was 4 h, the half-life ([2]; SD, plasma, rat PO 2.5 mg/kg) was 4 h and the AUC(0-inf) ([2]; SD, rat IV 1.25 mg/kg, plasma) was 1.67 µg·h/mL. It also gave an AUC(0-t) ([2]; SD, rat IV 1.25 mg/kg, plasma) of 1.64 µg·h/mL, an AUC(0-inf) ([2]; SD, rat PO 2.5 mg/kg, plasma) of 0.929 µg·h/mL and an AUC(0-t) ([2]; SD, rat PO 2.5 mg/kg, plasma) of 0.908 µg·h/mL. For the same molecule, the BA ([2]; rat PO […] vs IV 1.25 mg/kg) was 27.8%, the “swimming time % within the target quadrant (probe trial)” value ([3]; PO 10 mg/kg/day) was 40.4% and the “swimming time % within the target quadrant (probe trial)” value ([3]; PO 30 mg/kg/day) was 39.7%. The “swimming time % within the target quadrant (probe trial)” value ([3]; PO 100 mg/kg/day) was 37.6%, the “Latency (hidden platform)” value ([3]; Day 1, dose group + (10 mg/kg/day)) was 50.5 ± 2.1 s and the “Latency (hidden platform)” value ([3]; Day 1, dose group ++ (30 mg/kg/day)) was 49.2 ± 2.4 s. The “Latency (hidden platform)” value ([3]; Day 1, dose group +++ (100 mg/kg/day)) was 48.3 ± 3.0 s, the “Latency (hidden platform)” value ([3]; Day 2, dose group + (10 mg/kg/day)) was 39.8 ± 2.7 s and the “Latency (hidden platform)” value ([3]; Day 2, dose group ++ (30 mg/kg/day)) was 38.3 ± 3.0 s. The “Latency (hidden platform)” value ([3]; Day 2, dose group +++ (100 mg/kg/day)) was 37.6 ± 5.2 s, the “Latency (hidden platform)” value ([3]; Day 3, dose group + (10 mg/kg/day)) was 31.1 ± 2.5 s and the “Latency (hidden platform)” value ([3]; Day 3, dose group ++ (30 mg/kg/day)) was 30.6 ± 3.3 s. For the same molecule, the “Latency (hidden platform)” value ([3]; Day 3, dose group +++ (100 mg/kg/day)) was 34.3 ± 4.3 s, the “Latency (hidden platform)” value ([3]; Day 4, dose group + (10 mg/kg/day)) was 35.1 ± 2.8 s and the “Latency (hidden platform)” value ([3]; Day 4, dose group ++ (30 mg/kg/day)) was 32.9 ± 3.0 s. The “Latency (hidden platform)” value ([3]; Day 4, dose group +++ (100 mg/kg/day)) was 32.0 ± 4.0 s, the “Latency (hidden platform)” value ([3]; Day 5, dose group + (10 mg/kg/day)) was 41.8 ± 3.2 s and the “Latency (hidden platform)” value ([3]; Day 5, dose group ++ (30 mg/kg/day)) was 36.3 ± 4.2 s. The “Latency (hidden platform)” value ([3]; Day 5, dose group +++ (100 mg/kg/day)) was 29.6 ± 4.1 s, the “Latency (hidden platform)” value ([3]; Day 6, dose group + (10 mg/kg/day)) was 32.9 ± 1.9 s and the “Latency (hidden platform)” value ([3]; Day 6, dose group ++ (30 mg/kg/day)) was 29.3 ± 3.9 s. For the same molecule, the “Latency (hidden platform)” value ([3]; Day 6, dose group +++ (100 mg/kg/day)) was 33.4 ± 4.8 s, the “Latency (hidden platform)” value ([3]; Day 7, dose group + (10 mg/kg/day)) was 31.7 ± 2.6 s and the “Latency (hidden platform)” value ([3]; Day 7, dose group ++ (30 mg/kg/day)) was 28.6 ± 3.5 s. For the same molecule, the “Latency (hidden platform)” value ([3]; Day 7, dose group +++ (100 mg/kg/day)) was 30.0 ± 2.6 s, the “Latency (hidden platform)” value ([3]; Day 8, dose group + (10 mg/kg/day)) was 26.6 ± 3.0 s and the “Latency (hidden platform)” value ([3]; Day 8, dose group ++ (30 mg/kg/day)) was 25.6 ± 3.0 s. For the same molecule, the “Latency (hidden platform)” value ([3]; Day 8, dose group +++ (100 mg/kg/day)) was 27.9 ± 4.6 s, the “freezing response (contextual fear conditioning)” value [4] was 48.3% and the “frequency of spontaneous alternation (Y-maze)” value (“frequency” below) ([5]; PO 10 mg/kg/day) was 69.3%. For the same molecule, the “frequency” value ([5]; PO 30 mg/kg/day) was 68.5% and the “frequency” value ([5]; PO 100 mg/kg/day) was 70.2%.
